Assay results reported in US11787783B2, “Heparanase inhibitors and use thereof” (Beta Therapeutics Pty Ltd, priority 2016, dated 2023).
Where two headings read alike, the source gives them in different places.

Tests used:
[1] = target: T1, heparanase (Homo sapiens, UniProt Q9Y251); test: Heparanase inhibition (IC50); type: biochemical
T1 sequence (Q9Y251 158-543 limits assumed): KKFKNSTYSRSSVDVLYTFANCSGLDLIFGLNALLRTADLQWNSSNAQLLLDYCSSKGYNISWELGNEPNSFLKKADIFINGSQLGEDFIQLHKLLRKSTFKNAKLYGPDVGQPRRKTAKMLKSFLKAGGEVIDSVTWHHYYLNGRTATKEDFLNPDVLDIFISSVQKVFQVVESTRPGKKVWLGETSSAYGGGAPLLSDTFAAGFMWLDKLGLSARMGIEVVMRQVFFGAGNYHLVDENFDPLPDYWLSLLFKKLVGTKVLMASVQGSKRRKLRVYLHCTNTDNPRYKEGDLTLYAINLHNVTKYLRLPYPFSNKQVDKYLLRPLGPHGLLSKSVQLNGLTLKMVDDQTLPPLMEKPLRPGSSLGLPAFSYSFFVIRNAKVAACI
T1 sequence (Q9Y251 36-109 limits assumed): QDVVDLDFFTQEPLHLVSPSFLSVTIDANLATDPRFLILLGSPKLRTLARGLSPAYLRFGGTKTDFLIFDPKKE
Method: Heparanase inhibition was determined using standard methods and the results expressed as the half maximal inhibitory concentration (IC50) being the concentration of the compound of the invention required to achieve 50% inhibition of heparanase.

[2] = test system: RIP-OVAhi mice; test: Adoptive transfer of Type 1 diabetes in transgenic RIP-OVAhi mice (acute Type 1 diabetes model); type: in vivo, mouse
Method: FIG. 2. Treatment of RIP-OVA^hi mice from the time of adoptive transfer of OVA-specific OT-1 and activated […] tg T cells with the small molecule heparanase inhibitor BT-2012 (10 mg/kg QD, IP in saline/50% DMSO).
FIG. 3. Treatment of RIP-OVA^hi mice from the time of adoptive transfer of OVA-specific OT-1 and activated OT-II tg T cells with a control heparanase inhibitor, (denoted “BT-1055”) (10 mg/kg QD, IP in saline/20% DMSO).
In NOD mice, the autoimmune disease process develops slowly because of the asynchronous destruction of the beta cells in different islets. Indeed Type 1 diabetes develops only after >90% of the total islet beta cell mass has been destroyed. The slow course of the disease in NOD mice offers realistic potential for immune intervention but, unfortunately, high throughput screening of test drugs is not feasible. A more acute model of diabetes can be induced experimentally using RIP-OVAhi transgenic mice which express a foreign ovalbumin (OVA) peptide, under the control of the rat insulin promoter (RIP), only in islet beta cells. Following adoptive transfer of naïve OVA specific CD8+ (OT-I) and activated OVA-specific CD4+ (OT-II) transgenic T cells, the transgenic T cells traffic to the host lymph nodes where the OT-I T cells become activated and then to the OVA-expressing pancreatic islets where they rapidly induce islet beta cell destruction and diabetes, all mice succumbing to rapid onset of high blood glucose levels (hyperglycaemia) in the second week after cell transfer. […]
Using the RIP-OVAhi transgenic mice the effect of a heparanase inhibitor compound (denoted “BT-1055”) was tested for its effect on blood glucose levels. Following adoptive transfer of naïve OVA specific CD8+ (OT-I) and activated OVA-specific CD4+ (OT-II) transgenic T cells into a number of RIP-OVAhi mice blood glucose was monitored regularly over two weeks in populations of mice treated with BT-1055 and a control group administered saline (FIG. 3).

[3] = test system: db/db mice; test: Insulin content in pancreas sections/islets of db/db mice (Type 2 diabetes model), anti-insulin antibody staining; type: in vivo, mouse; details: 50 mg/kg daily intraperitoneal injection, versus saline treated db/db and wild-type mice
Method: FIG. 5. Insulin content in pancreas sections in db/db mice a model of Type 2 diabetes. Mice were treated daily with 50 mg/kg PI-88 IP from 4 weeks of age. Onset of clinical diabetes was determined by measuring urine glucose twice weekly with Multistix reagent strips and confirmed by measuring non-fasting blood glucose levels in tail vein blood using a MediSense glucometer with hyperglycemia defined as 2 consecutive blood glucose readings of 16 mmol/I or greater. Insulin was detected by anti-insulin antibody staining.
The db/db mouse has defective leptin signalling resulting from a point mutation in the leptin receptor gene. Plasma insulin levels become elevated very early in life (10-14 days of age), and the affected animals are obese by the time they are 3-4 weeks old. The animals are insulin resistant, hypertriglyceridemic, and have impaired glucose tolerance.
db/db mice were treated with saline or 50 mg/kg of PI-88 by daily intraperitoneal injection. At the cessation of treatment pancreatic islets were isolated and stained for insulin and the level of insulin expression assessed by quantitative morphometric analyses.

[4] = test system: db/db mice; test: Intra-islet heparan sulfate content in db/db mice, Alcian blue staining; type: in vivo, mouse; details: 50 mg/kg daily intraperitoneal injection, versus saline treated db/db and wild-type mice
Method: FIG. 6. Intra-islet HS content in pancreas sections in treated db/db mice. Mice were treated daily with 50 mg/kg PI-88 IP from 4 weeks of age. Onset of clinical diabetes was determined by measuring urine glucose twice weekly with Multistix reagent strips and confirmed by measuring non-fasting blood glucose levels in tail vein blood using a MediSense glucometer with hyperglycemia defined as 2 consecutive blood glucose readings of 16 mmol/I or greater. Islet HS was detected by Alcian blue staining.
db/db mice were treated with saline or 50 mg/kg of PI-88 daily by intraperitoneal injection. At the cessation of treatment pancreatic islets were isolated and stained with alcian blue to visualise heparan sulfate and the heparan sulfate content of the islets was assessed by quantitative morphometric analyses.

[5] = read-out: Heparanase inhibition IC50

Row | Molecule | IC50 [1, 5] [µM] | other results
1 | COc1cc2[nH]c(=S)n(CCc3c[nH]c4ccccc34)c(=N)c2cc1OC [BT2012] | 14.8 | Individual treated mice in which blood glucose remained normal ([2]; 10 mg/kg QD, IP, 14 day assay period): 50%; Incidence of diabetes (blood glucose >12 mmol) reduced ([2]; 10 mg/kg QD, IP, from the time of adoptive transfer of OT-I and activated OT-II tg T cells): 50%; Protection from Type 1 diabetes induction following adoptive transfer of diabetogenic tg T cells ([2]; 10 mg/kg, by 14 days after transfer): protected RIPOVAhi mice from Type 1 diabetes induction
2 | COc1ccc2[nH]c(=S)n(CCc3c[nH]c4ccccc34)c(=N)c2c1 [BT2014] | 49.3 | –
3 | COc1ccc(OC)c(Cn2c(=S)[nH]c3cc(OC)c(OC)cc3c2=N)c1 [BT2022] | 37.2 | –
4 | COc1cc2[nH]c(=S)n(CCc3cn(C)c4ccccc34)c(=N)c2cc1OC [BT2024] | 27.4 | –
5 | COc1ccc(Cn2c(=S)[nH]c3cc(OC)c(OC)cc3c2=N)c(OC)c1 [BT2027] | 40.1 | –
6 | COc1cc2[nH]c(=S)n(CCc3c[nH]c4ccccc34)c(=N)c2cc1OC [BT2044] | 30 | –
7 | COc1ccc2[nH]cc(CCn3c(=S)[nH]c4cc(OC)c(OC)cc4c3=N)c2c1 [BT2046] | 9.4 | –
8 | COc1cc2[nH]c(=S)n(CCc3c[nH]c4ccc(-c5cccnc5)cc34)c(=N)c2cc1OC [BT2055] | 19.1 | –
9 | COc1cc2[nH]c(=S)n(CCNC(=O)c3cc4ccc(-c5ccc(C(=O)N6CCN(C)CC6)cc5)cc4[nH]3)c(=N)c2cc1OC [BT2073] | 51 | –
10 | COc1cc2[nH]c(=S)n(CCNC(=O)c3cc4cc(-c5ccc(N6CCN(C)CC6)nc5)ccc4[nH]3)c(=N)c2cc1OC [BT2075] | 20.6 | –
11 | COc1cc2[nH]c(=S)n(CCNC(=O)c3cc4ccc(-c5ccc(N6CCN(C)CC6)nc5)cc4[nH]3)c(=N)c2cc1OC [BT2076] | 12.4 | –
12 | COc1cc2[nH]c(=S)n(CCNC(=O)c3cc4cc(-c5cnn(C)c5)ccc4[nH]3)c(=N)c2cc1OC [BT2078] | 34.8 | –
13 | COc1cc2[nH]c(=O)n(CCNC(=O)c3cc4cc(C(=O)N5CCC5)ccc4[nH]3)c(=N)c2cc1OC [BT2080] | 90.4 | –
14 | COc1cc2[nH]c(=O)n(CCNC(=O)c3cc4cc(C(=O)N5CCOCC5)ccc4[nH]3)c(=N)c2cc1OC [BT2081] | 90.4 | –
15 | COc1cc2[nH]c(=S)n(CCNC(=O)c3cc4cc(C(=O)N5CCOCC5)ccc4[nH]3)c(=N)c2cc1OC [BT2082] | 35 | –
16 | COc1cc2[nH]c(=S)n(CCn3cc(C(=O)NCCN4CCOCC4)c4ccccc43)c(=N)c2cc1OC [BT2104] | – | IC50 ([1]; Heparanase inhibition IC50): 44.8 µM
17 | PI-88 | – | Expression of insulin in islets (quantitative morphometric analyses) [3]: increased compared to the saline treated db/db mice and is near to the level of insulin expression in the wild-type mice; Islet heparan sulfate levels (quantitative morphometric analyses) [4]: increased compared to the saline treated db/db mice and are near to the levels of heparan sulfate in the islets of wild-type mice

Continued, in another order:

Row | IC50 [1, 5] [µM] | Molecule | other results
18 | 1.3 | COc1cc2[nH]c(=S)n(C3CN(C(=O)c4cc5cc(-c6cccnc6)ccc5[nH]4)C3)c(=N)c2cc1OC [BT2085] | –
19 | 19.7 | COc1cc2[nH]c(=S)n(CCNC(=O)c3cccc(-c4ccccc4)n3)c(=N)c2cc1OC [BT2115] | –
20 | 12.8 | COc1cc2[nH]c(=S)n(CCNC(=O)c3cccc(-c4ccc(C(=O)N5CCN(C)CC5)cc4)n3)c(=N)c2cc1OC [BT2116] | –
21 | 12.5 | COc1cc2[nH]c(=S)n(CCNC(=O)c3cccc(-c4ccc5nonc5c4)n3)c(=N)c2cc1OC [BT2117] | –
22 | 15.6 | COc1cc2[nH]c(=S)n(CCNC(=O)c3ccc(-c4ccccc4)nc3)c(=N)c2cc1OC [BT2125] | –
23 | 58.6 | COc1cc2[nH]c(=S)n(CCNC(=O)c3nnc(-c4ccccc4)o3)c(=N)c2cc1OC [BT2132] | –
24 | 64 | COc1cc2nc(SCc3ccccc3)n(CCNC(=O)c3cc4ccccc4[nH]3)c(=N)c2cc1OC [BT2135] | –
25 | 13 | COc1cc2nc(SCc3ccc(C(F)(F)F)cc3)n(C3CN(C(=O)c4cc5ccc(-c6cccnc6)cc5[nH]4)C3)c(=N)c2cc1OC [BT2139] | –
26 | 37.5 | COc1cc2nc(SCc3ccc(C(F)(F)F)cc3)n(C3CN(C(=O)c4cc5ccc(-c6cccnc6)cc5[nH]4)C3)c(=N)c2cc1OC [BT2140] | –
27 | 23.6 | COc1cc2nc(SC)n(C3CN(C(=O)c4cc5ccc(-c6cccnc6)cc5[nH]4)C3)c(=N)c2cc1OC [BT2141] | –
28 | 7 | COc1cc2nc(SCc3ccc(OC(F)(F)F)cc3)n(C3CN(C(=O)c4cc5ccc(-c6cccnc6)cc5[nH]4)C3)c(=N)c2cc1OC [BT2142] | –
29 | 33 | COc1cc2nc(SC)n(C3CN(C(=O)c4cc5ccc(-c6cccnc6)cc5[nH]4)C3)c(=N)c2cc1OC [BT2143] | –
30 | 59.9 | COc1cc2[nH]c(=S)n(CCNC(=O)c3nnc(-c4ccccc4)o3)c(=N)c2cc1OC [BT2144] | –
31 | 22 | COc1cc2nc(SCc3ccc(OC(F)(F)F)cc3)n(C3CN(C(=O)c4cc5ccc(-c6cccnc6)cc5[nH]4)C3)c(=N)c2cc1OC [BT2145] | –
